From patent publication US9156829B2, “Cycloalkyl and heterocycloalkyl compounds as orexin receptor antagonists” (Takeda Pharmaceutical Company Limited, priority 2014, dated 2015) come the findings set out here.

One assay addresses human orexin receptor 1 (Homo sapiens (Human), UniProt O43613). Briefly: Orexin antagonist activity, intracellular calcium FLIPR assay, RBL-2H3 cells expressing human orexin receptor 1. The class given is cell-based. Particulars: RBL-2H3 cells stably expressing human orexin receptor 1; orexin-A at approx. 80% maximal response; compound added 15 minutes before; read-out: Human Orexin1R IC50.

The target in a further assay is human orexin receptor 2 (Homo sapiens (Human), UniProt O43614). Briefly: Orexin antagonist activity, intracellular calcium FLIPR assay, RBL-2H3 cells expressing human orexin receptor 2. The class given is cell-based. The conditions noted are these: RBL-2H3 cells stably expressing human orexin receptor 2; orexin-A at approx. 80% maximal response; compound added 15 minutes before; read-out: Human Orexin2R IC50.
human orexin receptor 2, sequence (O43614 whole entry): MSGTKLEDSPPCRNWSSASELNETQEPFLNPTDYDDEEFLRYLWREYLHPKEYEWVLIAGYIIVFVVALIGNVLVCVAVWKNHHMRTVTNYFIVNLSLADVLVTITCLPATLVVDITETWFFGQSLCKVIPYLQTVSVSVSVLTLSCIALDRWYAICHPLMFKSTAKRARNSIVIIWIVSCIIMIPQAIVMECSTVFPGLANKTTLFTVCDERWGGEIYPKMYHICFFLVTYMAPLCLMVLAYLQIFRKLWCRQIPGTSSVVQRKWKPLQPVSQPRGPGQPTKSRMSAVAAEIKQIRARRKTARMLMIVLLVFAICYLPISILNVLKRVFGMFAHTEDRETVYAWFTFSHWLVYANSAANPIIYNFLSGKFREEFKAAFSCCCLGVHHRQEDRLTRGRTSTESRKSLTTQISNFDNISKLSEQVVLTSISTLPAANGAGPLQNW

Molecules are shown by their SMILES.

For orientation: IC50 means the concentration at which inhibition is half-maximal.

human orexin receptor 1, sequence (O43613 whole entry): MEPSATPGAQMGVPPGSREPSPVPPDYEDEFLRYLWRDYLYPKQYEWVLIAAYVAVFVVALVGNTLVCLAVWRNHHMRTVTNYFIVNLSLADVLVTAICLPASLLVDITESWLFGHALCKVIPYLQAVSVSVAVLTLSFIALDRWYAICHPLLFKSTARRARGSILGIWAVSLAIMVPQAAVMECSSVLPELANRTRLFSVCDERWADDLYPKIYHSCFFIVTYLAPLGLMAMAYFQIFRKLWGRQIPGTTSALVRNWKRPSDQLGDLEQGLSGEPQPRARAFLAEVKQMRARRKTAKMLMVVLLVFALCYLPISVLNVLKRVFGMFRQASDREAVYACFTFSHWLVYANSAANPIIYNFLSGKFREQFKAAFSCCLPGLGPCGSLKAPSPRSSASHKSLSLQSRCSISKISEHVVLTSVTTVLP

In the case of `Cc1ccc(-n2nccn2)c(C(=O)NC2CCCC2Cc2ccc(C(F)(F)F)cn2)c1` (stereo not shown) [Example 26, 5-Methyl-2-(2H-1,2,3-triazol-2-yl)-N-(2-{[5-(trifluoromethyl)pyridin-2-yl]methyl}cyclopentyl)benzamide], the IC50 at human orexin receptor 1 is 0.622 µM; at human orexin receptor 2, greater than 10 µM.

As for `COc1cccc(OC)c1C(=O)N[C@H]1CCC[C@@H]1Nc1cccc(C(F)(F)F)n1` [Example 27, 2,6-Dimethoxy-N-[(1S,2S)-2-{[6-(trifluoromethyl)pyridin-2-yl]amino}cyclopentyl]benzamide], the IC50 at human orexin receptor 1 is 0.726 µM; on human orexin receptor 2, 2 µM.

Turning to `O=C(N[C@H]1CCC[C@@H]1Nc1cnc(C(F)(F)F)cn1)c1ncccc1Br` [Example 28, 3-Bromo-N-[(1S,2S)-2-{[5-(trifluoromethyl)pyrazin-2-yl]amino}cyclopentyl]pyridine-2-carboxamide], the values for the IC50 at human orexin receptor 1 and on human orexin receptor 2 were 0.776 µM and greater than 10 µM, respectively.

Consider `CCOc1ccc(C)cc1C(=O)N[C@H]1CCC[C@@H]1Nc1cnc(C(F)(F)F)cn1` [Example 29, 2-Ethoxy-5-methyl-N-[(1S,2S)-2-{[5-(trifluoromethyl)pyrazin-2-yl]amino}cyclopentyl]benzamide], for which the IC50 at human orexin receptor 1 is 0.279 µM; at human orexin receptor 2, greater than 10 µM.

`CCOc1ccc(C)nc1C(=O)N[C@H]1CCC[C@@H]1Nc1cnc(C(F)(F)F)cn1` [Example 30, 3-Ethoxy-6-methyl-N-[(1S,2S)-2-{[5-(trifluoromethyl)pyrazin-2-yl]amino}cyclopentyl]pyridine-2-carboxamide]: the IC50 at human orexin receptor 1 is 0.37 µM; on human orexin receptor 2, greater than 10 µM.

`O=C(N[C@H]1CCC[C@@H]1Nc1cnc(C(F)(F)F)cn1)c1ccccc1-n1cccn1` [Example 31, 2-(1H-Pyrazol-1-yl)-N-[(1S,2S)-2-{[5-(trifluoromethyl)pyrazin-2-yl]amino}cyclopentyl]benzamide]: the figures for the IC50 on human orexin receptor 1 and at human orexin receptor 2 were 0.122 µM and greater than 10 µM, respectively.

In the case of `O=C(N[C@H]1CCC[C@@H]1Nc1cnc(C(F)(F)F)cn1)c1c(F)cccc1-n1nccn1` [Example 32, 2-Fluoro-6-(2H-1,2,3-triazol-2-yl)-N-[(1S,2S)-2-{[5-(trifluoromethyl)pyrazin-2-yl]amino}cyclopentyl]benzamide], the IC50 at human orexin receptor 1 was 0.032 µM; at human orexin receptor 2 it was greater than 10 µM.

With `O=C(N[C@H]1CCC[C@@H]1Nc1cnc(C(F)(F)F)cn1)c1c(F)cccc1F` [Example 33, 2,6-Difluoro-N-[(1S,2S)-2-{[5-(trifluoromethyl)pyrazin-2-yl]amino}cyclopentyl]benzamide], the IC50 at human orexin receptor 1 is 0.89 µM; at human orexin receptor 2, greater than 10 µM.

Turning to `COc1cccc(OC)c1C(=O)N[C@H]1CCC[C@@H]1Nc1cnc(C(F)(F)F)cn1` [Example 34, 2,6-Dimethoxy-N-[(1S,2S)-2-{[5-(trifluoromethyl)pyrazin-2-yl]amino}cyclopentyl]benzamide], the results for the IC50 on human orexin receptor 1 and at human orexin receptor 2 were 0.523 µM and greater than 10 µM, respectively.

Regarding `O=C(N[C@H]1CCC[C@@H]1Nc1cnc(C(F)(F)F)cn1)c1ccccc1-n1ccnn1` [Example 35, 2-(1H-1,2,3-Triazol-1-yl)-N-[(1S,2S)-2-{[5-(trifluoromethyl)pyrazin-2-yl]amino}cyclopentyl]benzamide], the half-inhibitory concentration (IC50) on human orexin receptor 1 was 0.693 µM; at human orexin receptor 2 it was greater than 10 µM.

`O=C(N[C@H]1CCC[C@@H]1Nc1cnc(C(F)(F)F)cn1)c1cc(F)ccc1-n1nccn1` [Example 36, 5-Fluoro-2-(2H-1,2,3-triazol-2-yl)-N-[(1S,2S)-2-{[5-(trifluoromethyl)pyrazin-2-yl]amino}cyclopentyl]benzamide]: the IC50 at human orexin receptor 1 was 0.207 µM; on human orexin receptor 2, greater than 10 µM.

Turning to `COc1ccc(C)cc1C(=O)N[C@H]1CCC[C@@H]1Nc1cnc(C(F)(F)F)cn1` [Example 37, 2-Methoxy-5-methyl-N-[(1S,2S)-2-{[5-(trifluoromethyl)pyrazin-2-yl]amino}cyclopentyl]benzamide], the IC50 is 0.34 µM at human orexin receptor 1 and greater than 10 µM on human orexin receptor 2.

Regarding `O=C(N[C@H]1CCC[C@@H]1Nc1cnc(C(F)(F)F)cn1)c1ccccc1-c1ncccn1` [Example 38, 2-(Pyrimidin-2-yl)-N-[(1S,2S)-2-{[5-(trifluoromethyl)pyrazin-2-yl]amino}cyclopentyl]benzamide], the IC50 is 0.049 µM at human orexin receptor 1 and greater than 10 µM on human orexin receptor 2.

With `O=C(N[C@H]1CCC[C@@H]1Nc1cnc(C(F)(F)F)cn1)c1cc(F)ccc1-c1ncccn1` [Example 39, 5-Fluoro-2-(pyrimidin-2-yl)-N-[(1S,2S)-2-{[5-(trifluoromethyl)pyrazin-2-yl]amino}cyclopentyl]benzamide], the IC50 on human orexin receptor 1 was 0.081 µM; on human orexin receptor 2 it was greater than 10 µM.

As for `O=C(N[C@H]1CCC[C@@H]1Nc1cnc(C(F)(F)F)cn1)c1c(Cl)cccc1-n1nccn1` [Example 40, 2-Chloro-6-(2H-1,2,3-triazol-2-yl)-N-[(1S,2S)-2-{[5-(trifluoromethyl)pyrazin-2-yl]amino}cyclopentyl]benzamide], the IC50 at human orexin receptor 1 is 0.035 µM; at human orexin receptor 2 it was greater than 10 µM.

Consider `O=C(N[C@H]1CCC[C@@H]1Nc1cnc(C(F)(F)F)cn1)c1cc(F)ccc1-n1ccnn1` [Example 41, 5-Fluoro-2-(1H-1,2,3-triazol-1-yl)-N-[(1S,2S)-2-{[5-(trifluoromethyl)pyrazin-2-yl]amino}cyclopentyl]benzamide], for which the IC50 on human orexin receptor 1 is 0.644 µM; on human orexin receptor 2, greater than 10 µM.

With `Cc1ccc(-n2ccnn2)c(C(=O)N[C@H]2CCC[C@@H]2Nc2cnc(C(F)(F)F)cn2)c1` [Example 42, 5-Methyl-2-(1H-1,2,3-triazol-1-yl)-N-[(1S,2S)-2-{[5-(trifluoromethyl)pyrazin-2-yl]amino}cyclopentyl]benzamide], the IC50 at human orexin receptor 1 is 0.261 µM; on human orexin receptor 2, greater than 10 µM.

Turning to `O=C(N[C@H]1CCC[C@@H]1Nc1cnc(C(F)(F)F)cn1)c1ncccc1-n1cccn1` [Example 43, 3-(1H-Pyrazol-1-yl)-N-[(1S,2S)-2-{[5-(trifluoromethyl)pyrazin-2-yl]amino}cyclopentyl]pyridine-2-carboxamide], the IC50 at human orexin receptor 1 was 0.289 µM; at human orexin receptor 2, greater than 10 µM.

In the case of `Cc1nnc(-c2ccccc2C(=O)N[C@H]2CCC[C@@H]2Nc2cnc(C(F)(F)F)cn2)o1` [Example 44, 2-(5-Methyl-1,3,4-oxadiazol-2-yl)-N-[(1S,2S)-2-{[5-(trifluoromethyl)pyrazin-2-yl]amino}cyclopentyl]benzamide], the IC50 was 0.199 µM at human orexin receptor 1 and greater than 10 µM on human orexin receptor 2.

`O=C(N[C@H]1CCC[C@@H]1Nc1cnc(C(F)(F)F)cn1)c1cc(C(F)(F)F)ccc1-n1nccn1` [Example 45, 2-(2H-1,2,3-Triazol-2-yl)-5-(trifluoromethyl)-N-[(1S,2S)-2-{[5-(trifluoromethyl)pyrazin-2-yl]amino}cyclopentyl]benzamide]: the IC50 at human orexin receptor 1 is 0.241 µM; on human orexin receptor 2, greater than 10 µM.

On to `O=C(N[C@H]1CCC[C@@H]1Nc1cnc(C(F)(F)F)cn1)c1c(F)cccc1-n1cccn1` [Example 46, 2-Fluoro-6-(1H-pyrazol-1-yl)-N-[(1S,2S)-2-{[5-(trifluoromethyl)pyrazin-2-yl]amino}cyclopentyl]benzamide], for which the IC50 on human orexin receptor 1 was 0.172 µM; at human orexin receptor 2 it was greater than 10 µM.

As to `O=C(N[C@H]1CCC[C@@H]1Nc1cnc(C(F)(F)F)cn1)c1cc(F)ccc1-n1cccn1` [Example 47, 5-Fluoro-2-(1H-pyrazol-1-yl)-N-[(1S,2S)-2-{[5-(trifluoromethyl)pyrazin-2-yl]amino}cyclopentyl]benzamide], the IC50 was 0.445 µM at human orexin receptor 1 and greater than 10 µM on human orexin receptor 2.

As for `Cc1ccc(-n2cccn2)c(C(=O)N[C@H]2CCC[C@@H]2Nc2cnc(C(F)(F)F)cn2)c1` [Example 48, 5-Methyl-2-(1H-pyrazol-1-yl)-N-[(1S,2S)-2-{[5-(trifluoromethyl)pyrazin-2-yl]amino}cyclopentyl]benzamide], the IC50 at human orexin receptor 1 was 0.088 µM; at human orexin receptor 2, greater than 10 µM.

For `COc1cccc(-n2cccn2)c1C(=O)N[C@H]1CCC[C@@H]1Nc1cnc(C(F)(F)F)cn1` [Example 50, 2-Methoxy-6-(1H-pyrazol-1-yl)-N-[(1S,2S)-2-{[5-(trifluoromethyl)pyrazin-2-yl]amino}cyclopentyl]benzamide], the IC50 was 0.08 µM on human orexin receptor 1 and greater than 10 µM at human orexin receptor 2.

Regarding `O=C(N[C@H]1CCC[C@@H]1Nc1cnc(C(F)(F)F)cn1)c1ncccc1N1CCCCC1` [Example 51, 3-(Piperidin-1-yl)-N-[(1S,2S)-2-{[5-(trifluoromethyl)pyrazin-2-yl]amino}cyclopentyl]pyridine-2-carboxamide], the values for the IC50 at human orexin receptor 1 and on human orexin receptor 2 were 0.301 µM and greater than 10 µM, respectively.

Turning to `O=C(N[C@H]1CCC[C@@H]1Nc1cnc(C(F)(F)F)cn1)c1cc(Cl)ccc1-n1nccn1` [Example 52, 5-Chloro-2-(2H-1,2,3-triazol-2-yl)-N-[(1S,2S)-2-{[5-(trifluoromethyl)pyrazin-2-yl]amino}cyclopentyl]benzamide], the figures for the IC50 at human orexin receptor 1 and on human orexin receptor 2 were 0.069 µM and greater than 10 µM, respectively.

As to `O=C(N[C@H]1CCC[C@@H]1Nc1cnc(C(F)(F)F)cn1)c1cccc(F)c1-n1nccn1` [Example 53, 3-Fluoro-2-(2H-1,2,3-triazol-2-yl)-N-[(1S,2S)-2-{[5-(trifluoromethyl)pyrazin-2-yl]amino}cyclopentyl]benzamide], the values for the IC50 on human orexin receptor 1 and on human orexin receptor 2 were 0.093 µM and greater than 10 µM, respectively.

Regarding `O=C(N[C@H]1CCC[C@@H]1Nc1cnc(C(F)(F)F)cn1)c1cc(C(F)(F)F)ccc1-n1ccnn1` [Example 54, 2-(1H-1,2,3-Triazol-1-yl)-5-(trifluoromethyl)-N-[(1S,2S)-2-{[5-(trifluoromethyl)pyrazin-2-yl]amino}cyclopentyl]benzamide], the IC50 was 0.95 µM on human orexin receptor 1 and greater than 10 µM at human orexin receptor 2.

As for `O=C(N[C@H]1CCC[C@@H]1Nc1cnc(C(F)(F)F)cn1)c1cc(Cl)ccc1-n1ccnn1` [Example 55, 5-Chloro-2-(1H-1,2,3-triazol-1-yl)-N-[(1S,2S)-2-{[5-(trifluoromethyl)pyrazin-2-yl]amino}cyclopentyl]benzamide], the IC50 on human orexin receptor 1 was 0.761 µM; on human orexin receptor 2, greater than 10 µM.
